This assay relates to Aβ1-42 production. Put plainly: Cellular assay for inhibition of Aβ1-42 production (H4 APP751 SWE clone 8.20). Format: cell-based. The following applies: H4 APP751 SWE clone 8.20 cells, 19 h incubation. A digest of the protocol: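 Viewlux signal read-out; IC50 by curve fit. Sandwich: 565 anti-Aβ42 neoepitope (Wallac conjugate, 0.8 ng/well) + 26D6 anti-N-terminus (APC, 75 ng/well), in Tris-HCl 40 mM pH 7.4/0.2% BSA, o/n 4 °C. Cells exposed to compound 19 h, 37 °C, 5% CO2.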

The mark [1] stands for this setting: class symbols, read-out: Activity Rating (Aβ42 cellular IC50).
Setting [2] is: 19 h, class symbols, read-out: Activity Rating (Aβ42 cellular IC50).

Counter-ions that a name gives are not always drawn. Like-named read-outs stand apart in the source and are kept apart here.

The term IC50 denotes the concentration that gives 50% inhibition. As to `COc1cc(Nc2nc(N[C@H](C)C3CC3)c3c(n2)C(c2ccc(C(F)(F)F)cc2)COC3)ccc1-n1cnc(Cl)c1` (stereo partly drawn) [Example 117B, N2-(4-(4-chloro-1H-imidazol-1-yl)-3-methoxyphenyl)-N4-((R)-1-cyclopropylethyl)-8-(4-(trifluoromethyl)phenyl)-7,8-dihydro-5H-pyrano[4,3-d]pyrimidine-2,4-diamine], the IC50 under setting [1] was in the range of 100 to 1000 nM.
Same read-out and setting: next, `COc1cc(Nc2nc3c(c(N(C)C)n2)CCCC3c2ccc(F)cc2)ccc1-n1cnc(Cl)c1` (single isomer, unassigned) [Example 127B, N^2-(4-(4-chloro-1H-imidazol-1-yl)-3-methoxyphenyl)-8-(4-fluorophenyl)-N^4,N^4-dimethyl-5,6,7,8-tetrahydroquinazoline-2,4-diamine]: 10 to 100 nM.
Take `CNc1nc(Nc2ccc(-n3cnc(C)c3)c(OC)n2)nc2c1CCC2c1ccc(F)cc1` (centres unmarked) [Example 267, 7-(4-fluorophenyl)-N2-(6-methoxy-5-(4-methyl-1H-imidazol-1-yl)pyridin-2-yl)-N4-methyl-6,7-dihydro-5H-cyclopenta[d]pyrimidine-2,4-diamine]: the concentration for half-maximal inhibition (IC50) under setting [2] was in the range of 10 to 100 nM.
With `CCNc1nc(Nc2ccc(-n3cnc(Cl)c3)c(OC)c2)nc2c1CCN(CC)C2c1ccc(F)cc1` (centres unmarked) [Example 169, N2-(4-(4-chloro-1H-imidazol-1-yl)-3-methoxyphenyl)-N4,7-diethyl-8-(4-fluorophenyl)-5,6,7,8-tetrahydropyrido[3,4-d]pyrimidine-2,4-diamine], the IC50 under setting [1] fell in the range of 10 to 100 nM.
The same measure, in the same setting: next, `CNc1nc(Nc2ccc(C#N)c(C(F)(F)F)c2)nc2c1CCC2c1ccccc1` (centres unmarked) [Example 238, 4-(4-(methylamino)-7-phenyl-6,7-dihydro-5H-cyclopenta[d]pyrimidin-2-ylamino)-2-(trifluoromethyl)benzonitrile]: 100 to 1000 nM.
Regarding `COc1cc(Nc2nc(N[C@H](C)C3CC3)c3c(n2)C(c2ccc(F)cc2)CC3)ccc1-n1cnc(Cl)c1` (mixture of isomers) [Example 49, N2-(4-(4-chloro-1H-imidazol-1-yl)-3-methoxyphenyl)-N4-((R)-1-cyclopropylethyl)-7-(4-fluorophenyl)-6,7-dihydro-5H-cyclopenta[d]pyrimidine-2,4-diamine, 2 TFA], the 50% inhibitory concentration (IC50) (class symbols, TFA, read-out: Activity Rating (Aβ42 cellular IC50)) was in the range of 1.5 to 9.9 nM.
`COc1cc(Nc2nc3c(c(N4CCC(O)(C(F)(F)F)C4)n2)CCC3c2ccc(F)cc2)ccc1-n1cnc(Cl)c1` (single isomer, unassigned) [Example 28A, 1-(2-(4-(4-chloro-1H-imidazol-1-yl)-3-methoxyphenylamino)-7-(4-fluorophenyl)-6,7-dihydro-5H-cyclopenta[d]pyrimidin-4-yl)-3-(trifluoromethyl)pyrrolidin-3-ol]: under setting [1], the 50% inhibitory concentration (IC50) was in the range of 10 to 100 nM.
For the molecule `CCNc1nc(Nc2ccc(-n3cnc(Cl)c3)c(OC)c2)nc2c1CN(S(C)(=O)=O)CC2c1ccc(F)cc1` (centres unmarked) [Example 155A, N2-(4-(4-chloro-1H-imidazol-1-yl)-3-methoxyphenyl)-N4-ethyl-8-(4-fluorophenyl)-6-(methylsulfonyl)-5,6,7,8-tetrahydropyrido[4,3-d]pyrimidine-2,4-diamine], under setting [2], the IC50 was 1.5 to 9.9 nM.
The same measure, in the same setting: next, `COc1cc(Nc2nc3c(c(N4CCC(F)(F)CC4)n2)CCC3c2ccc(F)cc2)ccc1-n1cnc(Cl)c1` (racemic) [Example 39, N-(4-(4-chloro-1H-imidazol-1-yl)-3-methoxyphenyl)-4-(4,4-difluoropiperidin-1-yl)-7-(4-fluorophenyl)-6,7-dihydro-5H-cyclopenta[d]pyrimidin-2-amine]: 10 to 100 nM; `CNc1nc(Nc2ccc(-n3cnc(C)n3)c(OC)c2)nc2c1CCC2c1ccccc1` (centres unmarked) [Example 1, N2-(3-methoxy-4-(3-methyl-1H-1,2,4-triazol-1-yl)phenyl)-N4-methyl-7-phenyl-6,7-dihydro-5H-cyclopenta[d]pyrimidine-2,4-diamine]: 1.5 to 9.9 nM.
In the case of `CCNc1nc(Nc2ccc(-n3ncnc3C)c(F)c2)nc2c1COC2c1ccc(F)cc1` (single isomer, unassigned) [Example 78B, N^4-ethyl-N^2-(3-fluoro-4-(5-methyl-1H-1,2,4-triazol-1-yl)phenyl)-7-(4-fluorophenyl)-5,7-dihydrofuro[3,4-d]pyrimidine-2,4-diamine], the IC50 under setting [2] was in the range of 10 to 100 nM.
For `CNc1nc(Nc2ccc(-n3cnc(Cl)c3)c(OC)c2)nc2c1CCC2c1cc(F)cc(F)c1` (centres unmarked) [Example 102A, N^2-(4-(4-Chloro-1H-imidazol-1-yl)-3-methoxyphenyl)-7-(3,5-difluorophenyl)-N^4-methyl-6,7-dihydro-5H-cyclopenta[d]pyrimidine-2,4-diamine], the IC50 under setting [1] was in the range of 1.5 to 9.9 nM.
As for `COc1cc(Nc2nc3c(c(N4C[C@@H](C)O[C@@H](C)C4)n2)COC3c2ccc(F)cc2)ccc1-n1cnc(Cl)c1` (stereo partly drawn) [Example 84A, N-(4-(4-chloro-1H-imidazol-1-yl)-3-methoxyphenyl)-4-((2S,6R)-2,6-dimethylmorpholino)-7-(4-fluorophenyl)-5,7-dihydrofuro[3,4-d]pyrimidin-2-amine], under setting [2], the IC50 was 10 to 100 nM.
The same measure, in the same setting: next, `CCN(C)c1nc(Nc2ccc(-n3cnc(Cl)c3)c(OC)c2)nc2c1COCC2c1ccc(F)cc1` (centres unmarked) [Example 62A, N2-(4-(4-chloro-1H-imidazol-1-yl)-3-methoxyphenyl)-N4-ethyl-8-(4-fluorophenyl)-N4-methyl-7,8-dihydro-5H-pyrano[4,3-d]pyrimidine-2,4-diamine]: 1.5 to 9.9 nM.
On to `CCNc1nc(Nc2ccc(-n3cnc(Cl)c3)c(OC)c2)nc2c1CCC2(C)c1ccccc1` (centres unmarked) [Example 110A, N2-(4-(4-chloro-1H-imidazol-1-yl)-3-methoxyphenyl)-N4-ethyl-7-methyl-7-phenyl-6,7-dihydro-5H-cyclopenta[d]pyrimidine-2,4-diamine], for which the IC50 under setting [1] fell in the range of 1.5 to 9.9 nM.
As to `CNc1nc(Nc2ccc(-n3cnc(Cl)c3)c(OC)c2)nc2c1CCC2c1ccc(OC(F)(F)F)cc1` (racemic) [Example 97, N^2-(4-(4-Chloro-1H-imidazol-1-yl)-3-methoxyphenyl)-N^4-methyl-7-(4-(trifluoromethoxy)phenyl)-6,7-dihydro-5H-cyclopenta[d]pyrimidine-2,4-diamine], the IC50 under setting [2] is 1.5 to 9.9 nM.
Still for that read-out and setting: the same measure for `COc1cc(Nc2nc(NS(C)(=O)=O)c3c(n2)C(c2ccccc2)CC3)ccc1-n1cnc(Cl)c1` (centres unmarked) [Example 211, N-(2-(4-(4-chloro-1H-imidazol-1-yl)-3-methoxyphenylamino)-7-phenyl-6,7-dihydro-5H-cyclopenta[d]pyrimidin-4-yl)-N-methanesulfonamide]: 1.5 to 9.9 nM; for `CCN(C)c1nc(Nc2ccc(-n3cnc(Cl)c3)c(OC)c2)nc2c1CCC2c1ccccc1` (centres unmarked) [Example 5, N^2-(4-(4-Chloro-1H-imidazol-1-yl)-3-methoxyphenyl)-N^4-ethyl-N^4-methyl-7-phenyl-6,7-dihydro-5H-cyclopenta[d]pyrimidine-2,4-diamine]: 1.5 to 9.9 nM.
Regarding `C#Cc1ccc(Nc2nc(NC)c3c(n2)C(c2ccc(F)cc2)CC3)cc1` (centres unmarked) [Example 259, N2-(4-ethynylphenyl)-7-(4-fluorophenyl)-N4-methyl-6,7-dihydro-5H-cyclopenta[d]pyrimidine-2,4-diamine], the IC50 (19 h, read-out: Activity Rating (Aβ42 cellular IC50), numeric value) came to 940 nM.
As for `CNc1nc(Nc2nc3cc(C#N)ccc3[nH]2)nc2c1CCC2c1ccccc1` (centres unmarked) [Example 232, 2-(4-(methylamino)-7-phenyl-6,7-dihydro-5H-cyclopenta[d]pyrimidin-2-ylamino)-1H-benzo[d]imidazole-5-carbonitrile], the IC50 under setting [2] was greater than 1000 nM.

These data come from US8637525B2, “Compounds for the reduction of beta-amyloid production” (Bristol-Myers Squibb Company, priority 2009, dated 2014).
